The source of these data is patent US8822526B2, “Synergistic pharmaceutical combination for the treatment of cancer” (Piramal Enterprises Limited, priority 2007, dated 2014).

The test system of data set [1] is human non-small cell lung carcinoma H-460 cells. Description: In vitro cytotoxicity assay (MTS). Here is the method: The cytotoxicity assay used was MTS (3-(4,5-dimethylthiazol-2-yl)-5-(3-carboxymethoxyphenyl)-2-(4-sulfophenyl)-2H-tetrazolium, inner salt) assay. The human non-small cell lung carcinoma H-460 cells were seeded at a density of 1500 cells/well in 180 μL of culture medium in 96-well plate and incubated overnight to allow the cells to adhere. Varying concentrations of the drugs contained in the combination were added to the wells and incubated for an appropriate period of time in humidified 5% CO2 incubator at 37° C. in case of a single drug exposure. […] Control wells were treated with a vehicle. At the end of the incubation period, the medium was removed from the wells and 20 μL of MTS (2 mg/mL in phosphate buffer saline, pH 6-6.5 and filter sterilized) and 1 μL of phenazine methosulfate (PMS, 3 mM in phosphate buffered saline, pH 7.3 and filter sterilized) was added to each well and the total volume was adjusted to 200 μL with complete medium. The plate was incubated for 2-4 hours in humidified 5% CO2 incubator at 37° C.
(§1) After completion of the drugs treatment i.e. at the end of 96 hours the plates were processed for MTS viability assay and the percent cytotoxicity was calculated as compared to control.
as §1
(§2) The human non-small cell lung carcinoma H-460 cells were seeded at a density of 1500 cells/well. […] After completion of the drugs treatment i.e. at the end of 120 hours the plates were processed for MTS viability assay and the percent cytotoxicity was calculated as compared to control.
as §2
The human non-small cell lung carcinoma H-460 cells were seeded at a density of 1500 cells/well. […] After completion of the drugs treatment i.e. at the end of 120 hours, the plates were processed for MTS viability assay and the percent cytotoxicity was calculated as compared to control.
(§3) After completion of the drugs treatment i.e. at the end of 48 hours the plates were processed for MTS viability assay and the percent cytotoxicity was calculated as compared to control.
The plates were processed for MTS viability assay and the percent cytotoxicity was calculated as compared to control.
as §3
The human non-small cell lung carcinoma H-460 cells were seeded at a density of 1500 cells/well. As per Table 16A the cells were first treated with either of the drugs alone i.e. with doxorubicin or flavopiridol alone. Doxorubicin treatment was for the first 24 hours followed by complete medium for 96 hours while in case of flavopiridol, the first 24 hours was in complete medium followed by flavopiridol for the next 96 hours. […] After completion of the drugs treatment i.e. at the end of 120 hours the plates were processed for MTS viability assay and the percent cytotoxicity was calculated as compared to control.
As per Table 16B the cells were first treated with either of the drugs alone i.e. with doxorubicin or flavopiridol alone. Flavopiridol treatment was for the first 96 hours followed by complete medium for 24 hours while in case of doxorubicin, the first 96 hours was in complete medium followed by doxorubicin for 24 hours. […] After completion of the drugs treatment i.e. at the end of 120 hours, the plates were processed for MTS viability assay and the percent cytotoxicity was calculated as compared to control.
The human non-small cell lung carcinoma H-460 cells were seeded at a density of 1500 cells/well.

The subject of data set [2] is human pancreatic (Panc-1) cell line. Nature of the data set: In vitro cytotoxicity assay (MTS). The class given is cell-based.
Data set [3] deals with pancreatic cells (Panc-1). Nature of the data set: Analysis of cell cycle distribution and flow cytometry (sub G1 apoptosis). It counts as cell-based, human. The settings on record: FIG. 3: 70 nM gemcitabine alone (24 hours); 300 nM compound A alone (72 hours); combination 70 nM gemcitabine (24 hours) followed by 300 nM compound A (72 hours). A general note: Flow cytometry measures light scatter and fluorescence of single cells or particles in a stream.

The test system of data set [4] is NCI-H460/R. The settings on record: J. Chemother., 2006 February; 18(1) 66-73; cited from earlier work.

Several values for one entry are separate records, joined by “and”; a condition that tells them apart may be missing. Equal entries are not always repeated. Where two headings read alike, the source gives them in different places.

Consider `CN1CC[C@@H](c2c(O)cc(O)c3c(=O)cc(-c4ccccc4Cl)oc23)[C@@H]1CO.Cl` [Compound A, (+)-trans-2-(2-Chloro-phenyl)-5,7-dihydroxy-8-(2-hydroxymethyl-1-methyl-pyrrolidin-3-yl)-chromen-4-one hydrochloride], for which the “IC30 concentration after 48 hours treatment” value in data set [1] (H-460 cells, 48 hours treatment, hydrochloride) is 0.8 µM and ~0.7 µM; in data set [2] (Panc-1 cells, 48 hours treatment) it was about 0.3 µM. Besides, the IC50 is 1.2 µM in data set [1] (Homo sapiens, NCI-H460, 48 h, read-out: IC50 concentration after 48 hours treatment, H-460 cells, 48 hours treatment) and about 1 µM in data set [1] (read-out: IC50 concentration after 48 hours treatment, H-460 cells, 48 hours treatment, hydrochloride). For the same compound, the cytotoxicity at 0.8 µM in data set [1] (Homo sapiens, NCI-H460, 120 h, compound A 800 nM alone for 120 hours) was determined as 24%. The cytotoxicity at 1.2 µM in data set [1] (Homo sapiens, NCI-H460, 120 h, compound A 1200 nM alone for 120 hours) came out at 44%. The “% Cytotoxicity” value in data set [1] (human, 45 h, 1000 nM) is 35%; in data set [1] (human, 72 h, 800 nM) it was 17%; in data set [1] (human, 72 h, 1200 nM), 36%; in data set [1] (human, 96 h, 800 nM), 19%; in data set [2] (complete medium 24 hours, then compound A 300 nM 72 hours), 34%. The “apoptosis (sub G1 phase)” value in data set [3] stood at 4.3%.

With `COc1cccc2c1C(=O)c1c(O)c3c(c(O)c1C2=O)C[C@@](O)(C(=O)CO)C[C@@H]3O[C@H]1C[C@H](N)[C@H](O)[C@H](C)O1` [Doxorubicin], the “% Cytotoxicity” value in data set [1] (Doxorubicin 30 nM alone for 120 hours) is 2%; in data set [1] (Doxorubicin 30 nM first 24 hours, then complete medium 96 hours, MTS at 120 hours) it was 0%; in data set [1] (Doxorubicin 70 nM first 24 hours, then complete medium 96 hours, MTS at 120 hours), 14% and 12%; in data set [1] (Doxorubicin 100 nM alone for 120 hours), 24%; in data set [1] (Doxorubicin 100 nM first 24 hours, then complete medium 72 hours, MTS at 96 hours) it was 16%; in data set [1] (Doxorubicin 100 nM first 24 hours, then complete medium 96 hours, MTS at 120 hours), 8%. Also, the “% Cytotoxicity” value in data set [1] (Doxorubicin 100 nM first 24 hours, then complete medium 96 hours, MTS at 120 hours, listed as Doxo.) was 16% and 9%; in data set [1] (Doxorubicin 200 nM first 24 hours, then complete medium 96 hours, MTS at 120 hours) it was 17%. The cytotoxicity at 0.03 µM in data set [1] (Homo sapiens, NCI-H460, 120 h, Doxorubicin 30 nM alone for 120 hours) was 3%. Besides, the cytotoxicity at 0.07 µM in data set [1] (Homo sapiens, NCI-H460, 120 h, Doxorubicin 70 nM alone for 120 hours) came to 28%. Also, in data set [1] (Homo sapiens, NCI-H460, 120 h, Doxorubicin 100 nM alone for 120 hours), the cytotoxicity at 0.1 µM was determined as 19%. In data set [1] (Homo sapiens, NCI-H460, 120 h, Doxorubicin 200 nM alone for 120 hours), the cytotoxicity at 0.2 µM was 48%. Also, the “resistance of NCI-H460/R to doxorubicin” value in data set [4] was 96.2 fold.
